# Measured values published in PubChem BioAssay (NCI).
# “And” between values parts separate entries of the source, which are not always exact repeats. Equal entries are not always repeated.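 Assay format: 96-well plates, 48-hour exposure. GI50 is the concentration that inhibits growth by half. TGI is the concentration that stops growth completely.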 Where a SMILES comes first, the peptide text is derived from it. [ ]: non-standard residue; d: D form. Ac5c = NC1(C(=O)O)CCCC1
# Test system: OVCAR-3 ovarian
# Assay: inhibition of tumour cell growth, NCI panel, 48 h
SMILES,GI50,TGI
CC(=O)N[C@H]1C=C[C@@H]2/C=C(C)/C=C/[C@@H](C)[C@H]([C@H](C)[C@H](O)[C@@H](C)NC(C)=O)OC(=O)/C=C/C=C(C)\C=C\[C@]2(C)C1,0.0045 µM,18 µM
O=C1c2ccccc2-c2c1c1ccccc1c(=O)n2CCCNCCCn1ccnc1,1.63 µM,6.48 µM
ClCc1cccc(Cn2cnc3c(NC45CC6CC(CC(C6)C4)C5)ncnc32)c1,17.6 µM,35.9 µM
COC(=O)c1cc2c(cc1Cl)SC(N(N(C)C)S(=O)(=O)c1ccc(Br)s1)=NS2(=O)=O,21.6 µM,56.9 µM
O=c1c2cc(Cl)ccc2oc2ccc(OCCCCCN3CCCCC3)cc12,5.47 µM,11.5 µM
O=C1c2ccccc2C(=O)N1CCCSc1ccccc1,–,> 100 µM
CCOC(=O)Nc1nc2ccc(Cn3cccc3)cc2[nH]1,–,6.3 µM
COc1cc(Nc2nccc(Nc3ccc4c(C)[nH]nc4c3)n2)cc(OC)c1OC,2.5 µM,7.54 µM
COc1ccc(/C=N\NC(=O)CN2CCN(c3cc4c(cc3F)c(=O)c(C(=O)N/N=C/c3ccc(OC)c(OC)c3)cn4C3CC3)CC2)cc1OC,2.65 µM,7.26 µM

# Test system: SF-295 CNS
# Assay: inhibition of tumour cell growth, NCI panel, 48 h
SMILES,TGI,GI50
COc1ccc([N+](=O)[O-])c2c(NCCCN(C)C)c3ccccc3nc12,0.693 µM,–
CCN1CCN(C(=O)[C@]23CC[C@@H](C)[C@H](C)[C@@H]2C2=CC[C@@H]4[C@@]5(C)C/C(=C/c6ccncc6)C(=O)C(C)(C)[C@@H]5CC[C@@]4(C)[C@]2(C)CC3)CC1,2.88 µM,1.55 µM
NC1(C(=O)NC2(C(=O)O)CCCC2)CCCC1 (H-[Ac5c]-[Ac5c]-OH),> 100 µM,–
COC(=O)CCc1cc(OC)c2c(c1)C(C(=O)OC)C(c1ccc(OC)c(OC)c1)O2 (stereo not given),> 100 µM,> 100 µM and 17.1 µM
CSc1nc(C)c2c(n1)SCC2,> 10 µM,–
CC1=C2[C@@H](CC1)[C@]1(C)O[C@@](C3CCCCC3)(C[C@H]1OC(=O)CO)[C@H]2OC(=O)/C=C/c1ccccc1,19 µM,6.45 µM
O=C(O[C@H]1CN[C@H](C#Cc2cc3ncnc(Nc4ccc5c(ccn5Cc5cc(F)ccc5F)c4)c3s2)C1)N1CCOCC1,17.7 µM,6.02 µM
CC(=O)c1c(C)[nH]c(-c2nc3ccc(N4CCN(C)CC4)cc3[nH]2)c1-c1ccc(OCC2CCOCC2)cc1,15.3 µM,2.67 µM
Cc1nc2sc(C(=O)Nc3cccc(Cl)c3C)c(N)c2cc1C(=O)/C=C/c1ccccc1,2.1 µM,0.446 µM
C=C1C(=O)O[C@H]2[C@H]1CC/C(CNC(=O)c1cc3cc(OC)ccc3[nH]1)=C\CC[C@@]1(C)O[C@@H]21,18.7 µM,4.89 µM
O=S(=O)(NC1=NCCN1C(=S)SN1CCn2c1nsc2=S)c1ccc(Br)cc1,> 100 µM,46.2 µM
CC(=O)N[C@H]1C=C[C@@H]2/C=C(C)/C=C/[C@@H](C)[C@H]([C@H](C)[C@H](O)[C@@H](C)NC(C)=O)OC(=O)/C=C/C=C(C)\C=C\[C@]2(C)C1,–,0.00449 µM and 0.0045 µM
O=C1c2ccccc2-c2c1c1ccccc1c(=O)n2CCCNCCCn1ccnc1,1.99 µM,0.419 µM
ClCc1cccc(Cn2cnc3c(NC45CC6CC(CC(C6)C4)C5)ncnc32)c1,33.3 µM,15.9 µM
COC(=O)c1cc2c(cc1Cl)SC(N(N(C)C)S(=O)(=O)c1ccc(Br)s1)=NS2(=O)=O,97.3 µM,33.2 µM
O=c1c2cc(Cl)ccc2oc2ccc(OCCCCCN3CCCCC3)cc12,13.5 µM,6.62 µM
O=C1c2ccccc2C(=O)N1CCCSc1ccccc1,> 100 µM,–
CCOC(=O)Nc1nc2ccc(Cn3cccc3)cc2[nH]1,20 µM,–
COc1cc(Nc2nccc(Nc3ccc4c(C)[nH]nc4c3)n2)cc(OC)c1OC,9.77 µM,2.66 µM
COc1ccc(/C=N\NC(=O)CN2CCN(c3cc4c(cc3F)c(=O)c(C(=O)N/N=C/c3ccc(OC)c(OC)c3)cn4C3CC3)CC2)cc1OC,63 µM,17.9 µM

# Test system: UO-31 renal
# Assay: inhibition of tumour cell growth, NCI panel, 48 h
SMILES,TGI,GI50
COc1ccc([N+](=O)[O-])c2c(NCCCN(C)C)c3ccccc3nc12,1.15 µM,–
CCN1CCN(C(=O)[C@]23CC[C@@H](C)[C@H](C)[C@@H]2C2=CC[C@@H]4[C@@]5(C)C/C(=C/c6ccncc6)C(=O)C(C)(C)[C@@H]5CC[C@@]4(C)[C@]2(C)CC3)CC1,2.65 µM,1.37 µM
NC1(C(=O)NC2(C(=O)O)CCCC2)CCCC1 (H-[Ac5c]-[Ac5c]-OH),> 100 µM,–
COC(=O)CCc1cc(OC)c2c(c1)C(C(=O)OC)C(c1ccc(OC)c(OC)c1)O2 (stereo not given),> 100 µM,84.9 µM and 36.8 µM
CSc1nc(C)c2c(n1)SCC2,> 10 µM,–
CC1=C2[C@@H](CC1)[C@]1(C)O[C@@](C3CCCCC3)(C[C@H]1OC(=O)CO)[C@H]2OC(=O)/C=C/c1ccccc1,14.9 µM,0.359 µM
O=C(O[C@H]1CN[C@H](C#Cc2cc3ncnc(Nc4ccc5c(ccn5Cc5cc(F)ccc5F)c4)c3s2)C1)N1CCOCC1,7.05 µM,0.339 µM
CC(=O)c1c(C)[nH]c(-c2nc3ccc(N4CCN(C)CC4)cc3[nH]2)c1-c1ccc(OCC2CCOCC2)cc1,6.81 µM,0.207 µM
Cc1nc2sc(C(=O)Nc3cccc(Cl)c3C)c(N)c2cc1C(=O)/C=C/c1ccccc1,1.1 µM,0.438 µM
C=C1C(=O)O[C@H]2[C@H]1CC/C(CNC(=O)c1cc3cc(OC)ccc3[nH]1)=C\CC[C@@]1(C)O[C@@H]21,2.64 µM,1.27 µM
O=S(=O)(NC1=NCCN1C(=S)SN1CCn2c1nsc2=S)c1ccc(Br)cc1,> 100 µM,61 µM
CC(=O)N[C@H]1C=C[C@@H]2/C=C(C)/C=C/[C@@H](C)[C@H]([C@H](C)[C@H](O)[C@@H](C)NC(C)=O)OC(=O)/C=C/C=C(C)\C=C\[C@]2(C)C1,4.65 µM and 10.6 µM,0.00414 µM and 0.0045 µM
O=C1c2ccccc2-c2c1c1ccccc1c(=O)n2CCCNCCCn1ccnc1,> 100 µM,1.23 µM
ClCc1cccc(Cn2cnc3c(NC45CC6CC(CC(C6)C4)C5)ncnc32)c1,31.4 µM,14.5 µM
COC(=O)c1cc2c(cc1Cl)SC(N(N(C)C)S(=O)(=O)c1ccc(Br)s1)=NS2(=O)=O,81.3 µM,27.3 µM
O=c1c2cc(Cl)ccc2oc2ccc(OCCCCCN3CCCCC3)cc12,10.4 µM,3.98 µM
O=C1c2ccccc2C(=O)N1CCCSc1ccccc1,> 100 µM,–
CCOC(=O)Nc1nc2ccc(Cn3cccc3)cc2[nH]1,> 100 µM,–
COc1cc(Nc2nccc(Nc3ccc4c(C)[nH]nc4c3)n2)cc(OC)c1OC,5.19 µM,0.842 µM
COc1ccc(/C=N\NC(=O)CN2CCN(c3cc4c(cc3F)c(=O)c(C(=O)N/N=C/c3ccc(OC)c(OC)c3)cn4C3CC3)CC2)cc1OC,> 100 µM,> 100 µM
